Laboratory results: patent US20240066136A1, “MODIFIED PROTEINS AND PROTEIN DEGRADERS” (Cullgen (Shanghai), Inc., priority 2020, published 2024)

Target: Human DDB1 (Homo sapiens (Human), UniProt Q16531)
Assay: Surface plasmon resonance (SPR) binding assay to immobilized His-DDB1
Conditions: SPR, DDB1 binding moieties with linkers and/or target protein binding moiety; read-out: Binding (Kd)
In short: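 Baculovirus-expressed His-DDB1 (High5 cells) amine-coupled to 11,000–13,000 RU on a CM5 chip; compounds injected in multi-cycle format without regeneration at 25° C in HBS-EP pH 7.4 (120 s association/dissociation). Double-referenced, solvent-corrected data fit to steady-state affinity model for KD.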

Sequence of Human DDB1 (Q16531 whole entry): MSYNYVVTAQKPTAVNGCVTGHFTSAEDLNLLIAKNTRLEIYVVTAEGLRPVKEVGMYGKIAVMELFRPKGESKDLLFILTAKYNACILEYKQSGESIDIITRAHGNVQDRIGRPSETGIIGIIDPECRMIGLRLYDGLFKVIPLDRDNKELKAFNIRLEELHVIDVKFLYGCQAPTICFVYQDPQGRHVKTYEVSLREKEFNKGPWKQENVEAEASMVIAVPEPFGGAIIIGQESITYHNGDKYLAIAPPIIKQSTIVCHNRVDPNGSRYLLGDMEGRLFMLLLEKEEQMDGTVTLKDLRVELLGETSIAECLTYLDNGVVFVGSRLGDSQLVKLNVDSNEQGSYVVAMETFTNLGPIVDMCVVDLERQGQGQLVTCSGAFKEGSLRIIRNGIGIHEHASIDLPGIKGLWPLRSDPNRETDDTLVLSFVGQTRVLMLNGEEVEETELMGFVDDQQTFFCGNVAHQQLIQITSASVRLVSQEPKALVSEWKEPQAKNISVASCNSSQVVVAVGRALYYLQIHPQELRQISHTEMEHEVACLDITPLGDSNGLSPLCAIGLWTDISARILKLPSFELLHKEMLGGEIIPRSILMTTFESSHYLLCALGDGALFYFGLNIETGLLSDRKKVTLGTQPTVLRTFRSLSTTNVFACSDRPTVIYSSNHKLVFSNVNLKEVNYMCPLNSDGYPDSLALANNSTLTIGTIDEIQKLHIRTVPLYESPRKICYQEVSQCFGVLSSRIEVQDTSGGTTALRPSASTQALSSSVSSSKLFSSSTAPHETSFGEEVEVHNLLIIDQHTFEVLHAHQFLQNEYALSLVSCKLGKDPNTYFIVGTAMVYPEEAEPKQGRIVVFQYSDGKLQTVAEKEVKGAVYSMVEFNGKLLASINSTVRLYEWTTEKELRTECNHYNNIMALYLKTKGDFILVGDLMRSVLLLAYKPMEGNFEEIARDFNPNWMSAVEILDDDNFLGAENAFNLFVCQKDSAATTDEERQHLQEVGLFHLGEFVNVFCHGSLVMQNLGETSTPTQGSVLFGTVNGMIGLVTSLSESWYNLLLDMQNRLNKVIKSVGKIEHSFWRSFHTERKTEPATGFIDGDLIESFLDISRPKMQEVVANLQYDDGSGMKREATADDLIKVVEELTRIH

Kd [µM] | SMILES
< 20 | Cc1nc(NC(=O)c2ccccc2NC(=O)CCCCCN)sc1[N+](=O)[O-] [BL-1, 2-(6-Aminohexanamido)-N-(4-methyl-5-nitrothiazol-2-yl)benzamide]
20 to 100 | Cc1nc(NC(=O)c2ccccc2NC(=O)CCOCCOCCOCCN)sc1[N+](=O)[O-] [BL-2, 2-(3-(2-(2-(2-Aminoethoxy)ethoxy)ethoxy)propanamido)-N-(4-methyl-5-nitrothiazol-2-yl)benzamide]
20 to 100 | NCCOCCOCCOCCC(=O)Nc1ccccc1C(=O)Nc1ncc([N+](=O)[O-])s1 [BL-3, 2-(3-(2-(2-(2-Aminoethoxy)ethoxy)ethoxy)propanamido)-N-(5-nitrothiazol-2-yl)benzamide]
20 to 100 | CC(=O)Nc1cc(C(=O)NCCOCCOCCOCCN)ccc1C(=O)Nc1nc(C)c([N+](=O)[O-])s1 [BL-5, 2-acetamido-N^4-(2-(2-(2-(2-aminoethoxy)ethoxy)ethoxy)ethyl)-N^1-(4-methyl-5-nitrothiazol-2-yl)terephthalamide]
20 to 100 | CC(=O)Nc1cc(C(=O)NCCOCCOCCOCCN)ccc1C(=O)Nc1ncc([N+](=O)[O-])s1 [BL-6, 2-acetamido-N^4-(2-(2-(2-(2-aminoethoxy)ethoxy)ethoxy)ethyl)-N^1-(5-nitrothiazol-2-yl)terephthalamide]
20 to 100 | CC(=O)Nc1cc(NCCCCCCCN)ccc1C(=O)Nc1nc(C)c([N+](=O)[O-])s1 [BL-7, 2-Acetamido-4-((7-aminoheptyl)amino)-N-(4-methyl-5-nitrothiazol-2-yl)benzamide]
20 to 100 | CC(=O)Nc1cc(NCCOCCOCCOCCN)ccc1C(=O)Nc1nc(C)c([N+](=O)[O-])s1 [BL-8, 2-Acetamido-4-((2-(2-(2-(2-aminoethoxy)ethoxy)ethoxy)ethyl)amino)-N-(4-methyl-5-nitrothiazol-2-yl)benzamide]
< 20 | CC(=O)Nc1cc(NCCOCCOCCOCCN)ccc1C(=O)Nc1ncc([N+](=O)[O-])s1 [BL-9, 2-Acetamido-4-((2-(2-(2-(2-aminoethoxy)ethoxy)ethoxy)ethyl)amino)-N-(5-nitrothiazol-2-yl)benzamide]
20 to 100 | CC(=O)Nc1cc(NCCCCN)ccc1C(=O)Nc1ccc([N+](=O)[O-])s1 [BL-20, 2-Acetamido-4-((4-aminobutyl)amino)-N-(5-nitrothiophen-2-yl)benzamide]
20 to 100 | CC(=O)Nc1cc(NCCOCCNC(=O)CN2CCC(n3nc(N4CCCc5cc(-c6cnn(C)c6)c(C(F)F)cc54)c4c3CCN(C(C)=O)C4)CC2)ccc1C(=O)Nc1nc(C)c([N+](=O)[O-])s1 [D-7, 2-Acetamido-4-((2-(2-(2-(4-(5-acetyl-3-(7-(difluoromethyl)-6-(1-methyl-1H-pyrazol-4-yl)-3,4-dihydroquinolin-1 (2H)-yl)-4,5,6,7-tetrahydro-1H-pyrazolo[4,3-c]pyridin-1-yl)piperidin-1-yl)acetamido)ethoxy)ethyl)amino)-N-(4-methyl-5-nitrothiazol-2-yl)benzamide]
20 to 100 | CC(=O)Nc1cc(NCCOCCOCCOCCOCCNC(=O)CN2CCN(c3cccc(-c4cnc5ccc(N6CCC[C@@H]6c6cccc(F)c6)nn45)n3)CC2)ccc1C(=O)Nc1nc(C)c([N+](=O)[O-])s1 [D-23, (R)-2-Acetamido-4-((1-(4-(6-(6-(2-(3-fluorophenyl)pyrrolidin-1-yl)imidazo[1,2-b]pyridazin-3-yl)pyridin-2-yl)piperazin-1-yl)-2-oxo-6,9,12,15-tetraoxa-3-azaheptadecan-17-yl)amino)-N-(4-methyl-5-nitrothiazol-2-yl)benzamide]
20 to 100 | CC(=O)Nc1cc(NCCNC(=O)C[C@@H]2N=C(c3ccc(Cl)cc3)c3c(sc(C)c3C)-n3c(C)nnc32)ccc1C(=O)Nc1nc(C)c([N+](=O)[O-])s1 [D-26, (S)-2-Acetamido-4-((2-(2-(4-(4-chlorophenyl)-2,3,9-trimethyl-6H-thieno[3,2-f][1,2,4]triazolo[4,3-a][1,4]diazepin-6-yl)acetamido)ethyl)amino)-N-(4-methyl-5-nitrothiazol-2-yl)benzamide]

Same assay, conditions: SPR, steady state affinity model, 25° C.; read-out: Binding (DDB1 binder activities, Kd)

Kd [µM] | SMILES
20 to 100 | CNC(=O)c1ccc(-c2cccc(O)c2)nc1NCC1CC1 [B-143, 2-((cyclopropylmethyl)amino)-6-(3-hydroxyphenyl)-N-methylnicotinamide]
20 to 100 | CNC(=O)CCCNC(=O)c1nnn2c1CN(C(=O)OCCCCCC(C)C)CC2 [B-144, 6-methylheptyl3-((4-(methylamino)-4-oxobutyl)carbamoyl)-6,7-dihydro-[1,2,3]triazolo[1,5-a]pyrazine-5(4H)-carboxylate]
20 to 100 | CCCNC(=O)c1cccc(C(=O)Nc2ncc([N+](=O)[O-])s2)c1NC(C)=O [B-145, 2-Acetamido-N^1-(5-nitrothiazol-2-yl)-N^3-propylisophthalamide]
20 to 100 | CCCCNc1ccc(C)c(C(=O)Nc2ncc([N+](=O)[O-])s2)c1 [B-148, 5-(Butylamino)-2-methyl-N-(5-nitrothiazol-2-yl)benzamide]
20 to 100 | CCCCNc1ccc(NC(C)=O)c(C(=O)Nc2ncc([N+](=O)[O-])s2)c1 [B-149, 2-Acetamido-5-(butylamino)-N-(5-nitrothiazol-2-yl)benzamide]
20 to 100 | Cc1cc(Cl)ccc1C(=O)Nc1ncc([N+](=O)[O-])s1 [B-150, 4-chloro-2-methyl-N-(5-nitrothiazol-2-yl)benzamide]
> 100 | Cc1cc(C#N)ccc1C(=O)Nc1ncc([N+](=O)[O-])s1 [B-151, 4-Cyano-2-methyl-N-(5-nitrothiazol-2-yl)benzamide]
< 20 | Cc1cc(Br)ccc1C(=O)Nc1ncc([N+](=O)[O-])s1 [B-152, 4-Bromo-2-methyl-N-(5-nitrothiazol-2-yl)benzamide]
20 to 100 | Cc1cc(-c2ccccc2)ccc1C(=O)Nc1ncc([N+](=O)[O-])s1 [B-153, 3-Methyl-N-(5-nitrothiazol-2-yl)-[1,1′-biphenyl]-4-carboxamide]
> 100 | CCCCNc1ccc(OCC)c(C(=O)Nc2ncc([N+](=O)[O-])s2)c1 [B-155, 5-(Butylamino)-2-ethoxy-N-(5-nitrothiazol-2-yl)benzamide]
> 100 | COc1ccc(C(=O)Nc2ncc([N+](=O)[O-])s2)c(C)c1 [B-156, 4-Methoxy-2-methyl-N-(5-nitrothiazol-2-yl)benzamide]
> 100 | Cc1cccc(C)c1C(=O)Nc1ncc([N+](=O)[O-])s1 [B-157, 2,6-Dimethyl-N-(5-nitrothiazol-2-yl)benzamide]
20 to 100 | CCc1ccc(C(=O)Nc2ncc([N+](=O)[O-])s2)c(C)c1 [B-158, 4-Ethyl-2-methyl-N-(5-nitrothiazol-2-yl)benzamide]
> 100 | CCOc1cccc(C)c1C(=O)Nc1ncc([N+](=O)[O-])s1 [B-159, 2-Ethoxy-6-methyl-N-(5-nitrothiazol-2-yl)benzamide]
20 to 100 | CCCCNc1ccc(C(=O)Nc2ncc([N+](=O)[O-])s2)c(OCC)c1 [B-160, 4-(Butylamino)-2-ethoxy-N-(5-nitrothiazol-2-yl)benzamide]
> 100 | Cc1cc(NC(C)C)ccc1C(=O)Nc1ncc([N+](=O)[O-])s1 [B-161, 4-(Isopropylamino)-2-methyl-N-(5-nitrothiazol-2-yl)benzamide]
> 100 | Cc1cc(N2CCOCC2)ccc1C(=O)Nc1ncc([N+](=O)[O-])s1 [B-162, 2-Methyl-4-morpholino-N-(5-nitrothiazol-2-yl)benzamide]
> 100 | Cc1cc(N2CCN(C)CC2)ccc1C(=O)Nc1ncc([N+](=O)[O-])s1 [B-163, 2-Methyl-4-(4-methylpiperazin-1-yl)-N-(5-nitrothiazol-2-yl)benzamide]
> 100 | Cc1cc(C(C)C)ccc1C(=O)Nc1ncc([N+](=O)[O-])s1 [B-164, 4-Isopropyl-2-methyl-N-(5-nitrothiazol-2-yl)benzamide]
20 to 100 | CCCCNc1ccc(C(=O)Nc2ncc([N+](=O)[O-])s2)c(C)c1 [B-165, 4-(Butylamino)-2-methyl-N-(5-nitrothiazol-2-yl)benzamide]
20 to 100 | CNc1ccc(C(=O)Nc2ncc([N+](=O)[O-])s2)c(C)c1 [B-166, 2-Methyl-4-(methylamino)-N-(5-nitrothiazol-2-yl)benzamide]
> 100 | Cc1cc(N(C)C)ccc1C(=O)Nc1ncc([N+](=O)[O-])s1 [B-167, 4-(Dimethylamino)-2-methyl-N-(5-nitrothiazol-2-yl)benzamide]
> 100 | CCNc1cccc(OCC)c1C(=O)Nc1ncc([N+](=O)[O-])s1 [B-168, 2-Ethoxy-6-(ethylamino)-N-(5-nitrothiazol-2-yl)benzamide]
20 to 100 | CCNc1cccc(C)c1C(=O)Nc1ncc([N+](=O)[O-])s1 [B-169, 2-(Ethylamino)-6-methyl-N-(5-nitrothiazol-2-yl)benzamide]
> 100 | CC(=O)Oc1cccc(C)c1C(=O)Nc1ncc([N+](=O)[O-])s1 [B-170, 3-Methyl-2-((5-nitrothiazol-2-yl)carbamoyl)phenyl acetate]
20 to 100 | Cc1cc(F)ccc1C(=O)Nc1ncc([N+](=O)[O-])s1 [B-171, 4-Fluoro-2-methyl-N-(5-nitrothiazol-2-yl)benzamide]
20 to 100 | Cc1ccc(C(=O)Nc2ncc([N+](=O)[O-])s2)c(C)c1 [B-172, 2,4-Dimethyl-N-(5-nitrothiazol-2-yl)benzamide]
< 20 | Cc1ccc(C)c(C(=O)Nc2ncc([N+](=O)[O-])s2)c1 [B-174, 2,5-Dimethyl-N-(5-nitrothiazol-2-yl)benzamide]
< 20 | Cc1cnc(NC(=O)c2ccccc2C)s1 [B-175, 2-Methyl-N-(5-methylthiazol-2-yl)benzamide]
< 20 | Cc1ccccc1C(=O)Nc1nccs1 [B-176, 2-Methyl-N-(thiazol-2-yl)benzamide]
